In ChEMBL document CHEMBL5385908, “Screening Ultra-Large Encoded Compound Libraries Leads to Novel Protein-Ligand Interactions and High Selectivity” (J Med Chem, 2024) one finds Ki data, which are given here for 1 compound.

The assay deals with T1, Proteinase-activated receptor 2 (Homo sapiens, UniProt P55085).
T1 sequence (P55085 whole entry): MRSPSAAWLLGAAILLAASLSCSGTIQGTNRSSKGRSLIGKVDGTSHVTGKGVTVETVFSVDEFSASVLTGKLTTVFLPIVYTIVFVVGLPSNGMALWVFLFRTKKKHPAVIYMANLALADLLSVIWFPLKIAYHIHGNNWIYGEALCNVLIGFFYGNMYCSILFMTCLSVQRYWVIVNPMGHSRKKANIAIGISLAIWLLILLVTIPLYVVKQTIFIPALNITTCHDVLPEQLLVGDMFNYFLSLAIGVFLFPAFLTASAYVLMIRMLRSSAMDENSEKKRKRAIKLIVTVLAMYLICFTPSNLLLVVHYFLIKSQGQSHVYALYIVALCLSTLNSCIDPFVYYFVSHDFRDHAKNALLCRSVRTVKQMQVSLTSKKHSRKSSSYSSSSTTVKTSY
Kind of assay: Binding affinity to PAR2 (unknown origin) assessed as inhibition constant.

Usually Ki stands for a dissociation constant, usually derived from enzyme kinetics or from competition with a known ligand.

Turning to `NCCCC[C@H](NC(=O)CNC(=O)Nc1ccc2c(c1)c(CN1CCCC1)cn2Cc1c(Cl)cccc1Cl)C(=O)N[C@@H](Cc1ccccc1)C(=O)NC(c1ccccc1)c1ccccc1`, the Ki worked out at 670 nM.
